Starred links: 1 amine or outer side, 2 acyl side, 3 side chain; linkers in the order of their positions; H or OH if unused. Positions of bridges follow the written chain, without caps; N, C: chain ends. Non-standard residues stand in square brackets, D forms with d. Residues, ends and D or L forms follow the SMILES beside them. *: point of attachment. hPhe(3-Cl-4-CF3) = N[C@@H](CCc1ccc(C(F)(F)F)c(Cl)c1)C(=O)O; hPhe(3-F,4-CF3) = N[C@@H](CCc1ccc(C(F)(F)F)c(F)c1)C(=O)O; X5 = CC(C)(C)NC(=O)COC[C@H](CC(=O)[*:1])N[*:2]; NMePhe(4-Cl) = CN[C@@H](Cc1ccc(Cl)cc1)C(=O)O; NMePhe(2-CN) = CN[C@@H](Cc1ccccc1C#N)C(=O)O; NMePhe(3-F) = CN[C@@H](Cc1cccc(F)c1)C(=O)O; hPhe(3-Cl) = N[C@@H](CCc1cccc(Cl)c1)C(=O)O; hPhe(4-Cl) = N[C@@H](CCc1ccc(Cl)cc1)C(=O)O; NMedβ3hAla = C[C@H](CC(=O)[*:2])N(C)[*:1]; NMeGly(cPent) = CN[C@H](C(=O)O)C1CCCC1; Phe(3-I) = N[C@@H](Cc1cccc(I)c1)C(=O)O; Pro(4,4-F2) = O=C(O)[C@@H]1CC(F)(F)CN1; NMeGly(cBu) = CN[C@H](C(=O)O)C1CCC1; NMeCha = CN[C@@H](CC1CCCCC1)C(=O)O; NMeChg = CN[C@H](C(=O)O)C1CCCCC1; NMeD = CN[C@@H](CC(=O)O)C(=O)O; NMeL = CN[C@@H](CC(C)C)C(=O)O; Chg = N[C@H](C(=O)O)C1CCCCC1; NMeV = CN[C@H](C(=O)O)C(C)C; d(β3hA) = C[C@@H](N)CC(=O)O; NMeS = CN[C@@H](CO)C(=O)O; hSer = N[C@@H](CCO)C(=O)O; Morpholide = C1CN(*)CCO1; NMeA = CN[C@@H](C)C(=O)O; NMeAib = CNC(C)(C)C(=O)O; Nle = CCCC[C@H](N)C(=O)O; Piperidide = C1CCN(*)CC1; Ac5c = NC1(C(=O)O)CCCC1; Aze = O=C(O)[C@@H]1CCN1; Ac4c = NC1(C(=O)O)CCC1; Nleu = CC(C)CNCC(=O)O; X47 = Fc1cncc(C*)c1; Sar = CNCC(=O)O; Propyl = CCC*
Target: T1, Kras and SOS1 (biotin-tagged human Kras loaded with GDP, His-tagged human SOS1) (Homo sapiens, UniProt P01116, G12D)
T1 construct: made in house; host or cells: E. coli (stated for Kras only)
Test: Protein-protein interaction inhibition between Kras and SOS1 (KrasGl2D-SOS PPI) using AlphaScreen
Format: binding
Conditions: AlphaScreen; biotin-tagged human Kras loaded with GDP, His-tagged human SOS1; read-out: KRAS G12D-SOS PPI IC50
Procedure, shortened: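 Energy transfer from nickel-chelate donor beads bound to His-SOS1 to streptavidin acceptor beads bound to biotin-Kras, expressed in E. coli and loaded with GDP after purification, was monitored. Donors were excited at 680 nm; singlet oxygen reaching acceptors gave emission read at 520-620 nm.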

T1 sequence (P01116 1-188 isoform P01116-2 G12D): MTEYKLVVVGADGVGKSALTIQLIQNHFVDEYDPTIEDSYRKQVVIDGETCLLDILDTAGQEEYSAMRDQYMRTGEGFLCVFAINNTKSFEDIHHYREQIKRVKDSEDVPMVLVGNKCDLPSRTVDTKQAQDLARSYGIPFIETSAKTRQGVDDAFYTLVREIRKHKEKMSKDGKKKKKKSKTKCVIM

| Structure (SMILES) | IC50 [nM] |
| --- | --- |
| CCCC[C@@H]1NC(=O)[C@H](Cc2cccc(I)c2)NC(=O)CN(C)C(=O)[C@H](Cc2ccc(Cl)cc2)N(C)C(=O)CN(C)C(=O)CN(C)C(=O)[C@H]([C@@H](C)CC)NC(=O)[C@H](CC(C)C)N(C)C(=O)C[C@@H](C(=O)N2CCCCC2)N(C)C(=O)[C@H](CC(C)C)NC(=O)[C@H](Cc2ccc(Cl)cc2)N(C)C1=O [Compound 934] ([NMeL]I[Sar][Sar][NMePhe(4-Cl)][Sar][Phe(3-I)][Nle][NMePhe(4-Cl)]L[NMeD]-Piperidide; lactam N-11) | 34 |
| CC[C@H](C)[C@@H]1NC(=O)[C@H](CC(C)C)N(C)C(=O)C[C@@H](C(=O)N2CCCCC2)N(C)C(=O)[C@H](C(C)C)N(C)C(=O)C2(CCCC2)NC(=O)[C@@H]2CCCN2C(=O)[C@H](CCc2ccc(C(F)(F)F)c(Cl)c2)NC(=O)CN(C)C(=O)[C@H](Cc2ccccc2C#N)N(C)C(=O)CN(C)C(=O)CN(C)C1=O [Compound 935] ([NMeL]I[Sar][Sar][NMePhe(2-CN)][Sar][hPhe(3-Cl-4-CF3)]P[Ac5c][NMeV][NMeD]-Piperidide; lactam N-11) | 6 |
| CC[C@H](C)[C@@H]1NC(=O)[C@H](CC(C)C)N(C)C(=O)C[C@@H](C(=O)N2CCCCC2)N(C)C(=O)[C@H](C2CCCCC2)N(C)C(=O)C2(CCCC2)NC(=O)[C@@H]2CCCN2C(=O)[C@H](CCc2ccc(C(F)(F)F)c(Cl)c2)NC(=O)CN(C)C(=O)[C@H](C2CCC2)N(C)C(=O)CN(C)C(=O)CN(C)C1=O [Compound 936] ([NMeL]I[Sar][Sar][NMeGly(cBu)][Sar][hPhe(3-Cl-4-CF3)]P[Ac5c][NMeChg][NMeD]-Piperidide; lactam N-11) | 1.1 |
| CC(C)C[C@H]1C(=O)N[C@@H](C2CCCCC2)C(=O)N(C)CC(=O)N(C)CC(=O)N(C)[C@@H](CC2CCCCC2)C(=O)N(C)CC(=O)N[C@@H](CCc2ccc(C(F)(F)F)c(Cl)c2)C(=O)N2CCC[C@H]2C(=O)NC2(CCCC2)C(=O)N(C)[C@@H](C(C)C)C(=O)N[C@H](C)CC(=O)N1C [Compound 937] (cyclo([Ac5c][NMeV][d(β3hA)][NMeL][Chg][Sar][Sar][NMeCha][Sar][hPhe(3-Cl-4-CF3)]P)) | 250 |
| COCC[C@@H]1NC(=O)[C@H](CC(C)C)N(C)C(=O)C[C@@H](C(=O)N2CCCCC2)N(C)C(=O)[C@H](C2CCCCC2)N(C)C(=O)C2(CCCC2)NC(=O)[C@@H]2CCCN2C(=O)[C@H](CCc2ccc(C(F)(F)F)c(Cl)c2)NC(=O)CN(C)C(=O)[C@H](CC2CCCCC2)N(C)C(=O)CN(C)C(=O)CN(C)C1=O [Compound 941] ([NMeL][hSer](Me)[Sar][Sar][NMeCha][Sar][hPhe(3-Cl-4-CF3)]P[Ac5c][NMeChg][NMeD]-Piperidide; lactam N-11) | 3.3 |
| CC[C@H](C)[C@@H]1NC(=O)[C@H](C)N(C)C(=O)C[C@@H](C(=O)N2CCCCC2)N(C)C(=O)[C@H](C(C)C)N(C)C(=O)C2(CCCC2)NC(=O)[C@H](Cc2cccc(F)c2)N(C)C(=O)[C@H](CCc2ccc(C(F)(F)F)c(Cl)c2)NC(=O)CN(C)C(=O)[C@H](CC2CCCCC2)N(C)C(=O)CN(C)C(=O)CN(C)C1=O [Compound 945] ([NMeA]I[Sar][Sar][NMeCha][Sar][hPhe(3-Cl-4-CF3)][NMePhe(3-F)][Ac5c][NMeV][NMeD]-Piperidide; lactam N-11) | 9.8 |
| CC[C@H](C)[C@@H]1NC(=O)[C@H](CC(C)C)N(C)C(=O)C[C@@H](C(=O)N2CCCCC2)N(C)C(=O)[C@H](C2CCCCC2)N(C)C(=O)C2(CCCC2)NC(=O)[C@H](COCc2cncc(F)c2)N(C)C(=O)[C@H](CCc2ccc(C(F)(F)F)c(Cl)c2)NC(=O)CN(C)C(=O)[C@H](CC2CCCCC2)N(C)C(=O)CN(C)C(=O)CN(C)C1=O [Compound 950] ([NMeL]I[Sar][Sar][NMeCha][Sar][hPhe(3-Cl-4-CF3)][NMeS](X47)[Ac5c][NMeChg][NMeD]-Piperidide; lactam N-11) | 9 |
| CC[C@H](C)[C@@H]1NC(=O)[C@H](CC(C)C)N(C)C(=O)C[C@@H](C(=O)N2CCCCC2)N(C)C(=O)[C@H](C(C)C)N(C)C(=O)C2(CCCC2)NC(=O)[C@@H]2CCCN2C(=O)[C@H](CCc2ccc(Cl)cc2)NC(=O)CN(C)C(=O)[C@H](CC2CCCCC2)N(C)C(=O)[C@@H]2CCCN2C(=O)CN(C)C1=O [Compound 953] ([NMeL]I[Sar]P[NMeCha][Sar][hPhe(4-Cl)]P[Ac5c][NMeV][NMeD]-Piperidide; lactam N-11) | 180 |
| CC[C@H](C)[C@@H]1NC(=O)[C@H](C)N(C)C(=O)C[C@@H](C(=O)N2CCCCC2)N(C)C(=O)[C@H](C2CCCCC2)N(C)C(=O)C2(CCCC2)NC(=O)[C@@H]2CCCN2C(=O)[C@H](CCc2cccc(Cl)c2)NC(=O)CN(C)C(=O)[C@H](CC2CCCCC2)N(C)C(=O)CN(C)C(=O)CN(C)C1=O [Compound 954] ([NMeA]I[Sar][Sar][NMeCha][Sar][hPhe(3-Cl)]P[Ac5c][NMeChg][NMeD]-Piperidide; lactam N-11) | 1.9 |
| CC[C@H](C)[C@@H]1NC(=O)[C@H](CC(C)C)N(C)C(=O)C[C@@H](COCC(=O)NC(C)(C)C)NC(=O)[C@H](C(C)C)N(C)C(=O)C2(CCCC2)NC(=O)[C@@H]2CCCN2C(=O)[C@H](CCc2ccc(C(F)(F)F)c(Cl)c2)NC(=O)CN(C)C(=O)[C@H](CC2CCCCC2)N(C)C(=O)CN(C)C(=O)CN(C)C1=O [Compound 955] ([NMeL]I[Sar][Sar][NMeCha][Sar][hPhe(3-Cl-4-CF3)]P[Ac5c][NMeV]; linker N-C via X5) | 26 |
| CC[C@H](C)[C@@H]1NC(=O)[C@H](CC(C)C)N(C)C(=O)C[C@@H](C)N(C)C(=O)[C@H](C2CCCC2)N(C)C(=O)C2(CCC2)NC(=O)[C@@H]2CC(F)(F)CN2C(=O)[C@H](CCc2ccc(C(F)(F)F)c(Cl)c2)NC(=O)CN(C)C(=O)[C@H](CC2CCCCC2)N(C)C(=O)CN(C)C(=O)CN(C)C1=O [Compound 962] (cyclo([Ac4c][NMeGly(cPent)][NMedβ3hAla][NMeL]I[Sar][Sar][NMeCha][Sar][hPhe(3-Cl-4-CF3)][Pro(4,4-F2)])) | 7.8 |
| CC[C@H](C)[C@@H]1NC(=O)[C@H](CC(C)C)N(C)C(=O)C[C@@H](C(=O)N2CCCCC2)N(C)C(=O)[C@H](CC(C)C)NC(=O)C(C)(C)N(C)C(=O)[C@H](CC(C)C)NC(=O)[C@H](CCc2ccc(C(F)(F)F)c(F)c2)NC(=O)CN(C)C(=O)[C@H](CC2CCCCC2)N(C)C(=O)CN(C)C(=O)CN(C)C1=O [Compound 969] ([NMeL]I[Sar][Sar][NMeCha][Sar][hPhe(3-F,4-CF3)]L[NMeAib]L[NMeD]-Piperidide; lactam N-11) | 2 |
| CC[C@H](C)[C@@H]1NC(=O)[C@H](CC(C)C)N(C)C(=O)C[C@@H](C)NC(=O)[C@H](C(C)C)N(C)C(=O)C2(CCCC2)NC(=O)[C@@H]2CCCN2C(=O)[C@H](CCc2ccc(C(F)(F)F)c(Cl)c2)NC(=O)CN(C)C(=O)[C@H](CC2CCCCC2)N(C)C(=O)CN(C)C(=O)CN(CC(C)C)C1=O [Compound 970] (cyclo([Ac5c][NMeV][d(β3hA)][NMeL]I[Nleu][Sar][NMeCha][Sar][hPhe(3-Cl-4-CF3)]P)) | 250 |
| CCCOC[C@H]1C(=O)N(C)CC(=O)N[C@@H](CCc2ccc(C(F)(F)F)c(Cl)c2)C(=O)N2CCC[C@H]2C(=O)NC2(CCCC2)C(=O)N(C)[C@@H](C2CCCC2)C(=O)N(C)[C@H](C(=O)N2CCOCC2)CC(=O)N(C)[C@@H](CC(C)C)C(=O)N[C@@H]([C@@H](C)CC)C(=O)N(C)[C@@H](C)C(=O)N2CC[C@H]2C(=O)N1C [Compound 974] ([NMeL]I[NMeA][Aze][NMeS](Propyl)[Sar][hPhe(3-Cl-4-CF3)]P[Ac5c][NMeGly(cPent)][NMeD]-Morpholide; lactam N-11) | 0.91 |
